From patent US20220211718A1, “BCL-2 INHIBITORS FOR USE IN THE TREATMENT OF A BCL-2 MEDIATED CANCER CARRYING THE GLY101VAL MUTATION” (LES LABORATOIRES SERVIER, priority 2019, published 2022)
pIC50: −log10 of the molar value.

Columns and labels:
[1] = tested on: KMS-12-PE Bcl-2 G101V cells; experiment: In vitro cytotoxicity, CellTiter-Glo cell viability 72 h; assay type: cell-based; conditions: Homo sapiens, read-out: KMS-12-PE Bcl-2 G101V C50
Protocol: (§1) Cell lines were grown at 37° C. in a humidified atmosphere with 5% CO2 in media recommended by the suppliers. RS4;11 (ATCC® CRL1873™) were purchased from American Type Culture Collection (ATCC) and KMS-12-PE (ACC 606) from the Leibniz-Institute DSMZ (Braunschweig, Germany). Lentiviral particles containing Bcl-2 wild-type (also named ‘Bcl-2 VT’) and Bcl-2 mutated on G101V (also named ‘Bcl-2 G101V’) were cloned into pcLV-CMV-DEST-IRES-TagRFP. Lentiviral particles (1×10^6) were mixed with Polybrene at 8 μg/ml and transduced by spinoculation for 1 h at 32° C. and incubated overnight. After 8 days for KMS-12-PE and 21 days for RS4;11, TagRFP positive-cells were sorted by FACS. BCL2 expression was monitored by immunoblotting using anti-Flag and anti-BCL2 antibodies. Cells were seeded into 96-well plates and treated with 1:3.16 serial dilution of compounds (9 different concentrations). […] Results were normalized to the viability of cells without compounds (control wells). The C50 values were calculated using nonlinear regression algorithms in XCell software.

[2] = tested on: KMS-12-PE Bcl-2 WT cells; experiment: as above; assay type: cell-based; conditions: Homo sapiens, read-out: KMS-12-PE Bcl-2 WT C50
Protocol: as §1

[3] = tested on: RS4;11 Bcl-2 G101V cells; experiment: as above; assay type: cell-based; conditions: Homo sapiens, read-out: RS4;11 Bcl-2 G101V C50
Protocol: as §1

[4] = tested on: RS4;11 Bcl-2 WT cells; experiment: as above; assay type: cell-based; conditions: Homo sapiens, read-out: RS4;11 Bcl-2 WT C50
Protocol: as §1

[5] = target: Bcl-2 Asp103Tyr mutant (Homo sapiens, UniProt P10415, D103Y); experiment: Fluorescence quenching assay (PUMA quench reagent displacement), Example 4; assay type: binding; conditions: 50 nM peptide, about 2 hours at 18° C., ABT-199 inactive @1 μM
From the text: […] […] […] […] […] […] […] […] […] […] […] […] […] […] […] […] […] […] […] […] […] […] […] […] […] […] […]

[6] = tested on: KMS-12-PE Bcl-2 D103Y cells; experiment: In vitro cytotoxicity, CellTiter-Glo cell viability 72 h, Example 5; assay type: cell-based; conditions: Homo sapiens, read-out: KMS-12-PE Bcl-2 D103Y C50
Protocol: Cell lines were grown at 37° C. in a humidified atmosphere with 5% CO2 in media recommended by the suppliers. KMS-12-PE (ACC 606) from the Leibniz-Institute DSMZ (Braunschweig, Germany). Lentiviral particles containing Bcl-2 mutated on D103Y were cloned into pcLV-CMV-DEST-IRES-TagRFP. Lentiviral particles (1×10^6) were mixed with Polybrene at 8 μg/ml and transduced by spinoculation for 1 h at 32° C. and incubated overnight. TagRFP positive-KMS-12-PE cells were sorted by FACS after 8 days. Bcl-2 expression was monitored by immunoblotting using anti-Flag and anti-Bcl-2 antibodies. Cells were seeded into 96-well plates and treated at 9 points with 1:3.16 serial dilution of compounds. […] Results were normalized to the viability of cells without compounds (control wells). The C50 values were calculated using nonlinear Regression algorithms in XCell software.

Chain of Bcl-2 Asp103Tyr mutant (P10415 with tags, fused parts or gaps D103Y): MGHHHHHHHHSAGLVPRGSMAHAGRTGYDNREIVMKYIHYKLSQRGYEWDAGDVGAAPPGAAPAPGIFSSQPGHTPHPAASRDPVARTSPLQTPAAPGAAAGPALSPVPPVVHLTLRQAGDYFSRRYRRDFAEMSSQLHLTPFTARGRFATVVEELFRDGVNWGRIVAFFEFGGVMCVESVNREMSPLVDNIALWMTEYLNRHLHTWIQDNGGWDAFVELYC

Bel-2 Asp103Tyr mutant K1 mean [5]	SMILES	pIC50 [1]	pIC50 [2]	pIC50 [3]	pIC50 [4]	pIC50 [6]
inactive	CC1(C)CCC(CN2CCN(c3ccc(C(=O)NS(=O)(=O)c4ccc(NCC5CCOCC5)c([N+](=O)[O-])c4)c(Oc4cnc5[nH]ccc5c4)c3)CC2)=C(c2ccc(Cl)cc2)C1 [ABT-199, Venetoclax, reference compound]	6.03	7.65	6.89	7.97	5.74
	O=C(c1cc(-c2cc3c(cc2C(=O)N2Cc4ccccc4C[C@H]2CN2CCOCC2)OCO3)n2c1CCCC2)N(c1ccccc1)c1ccc(O)cc1 [Compound A, N-(4-hydroxyphenyl)-3-{6-[((3S)-3-(4-morpholinylmethyl)-3,4-dihydro-2(1H)-isoquinolinyl)carbonyl]-1,3-benzodioxol-5-yl}-N-phenyl-5,6,7,8-tetrahydro-1-indolizine carboxamide]	6.02	7.24	6.31	7.08	
	Cc1c(N(C(=O)c2cc(-c3cc(Cl)ccc3C(=O)N3Cc4ccccc4C[C@H]3CN3CCOCC3)n(C)c2C)c2ccc(O)cc2)cc(C#N)n1C [Compound B, 5-(5-chloro-2-{[(3S)-3-(morpholin-4-ylmethyl)-3,4-dihydroisoquinolin-2(1H)-yl]carbonyl}phenyl)-N-(5-cyano-1,2-dimethyl-1H-pyrrol-3-yl)-N-(4-hydroxyphenyl)-1,2-dimethyl-1H-pyrrole-3-carboxamide]	6.75	7.68	7.22	8.04	7.08
